The values below come from ChEMBL document CHEMBL5036306 (J Med Chem, 2021).

The target of experiment [1] is T1, Protein deacetylase HDAC6 (Mus musculus) (UniProt Q9Z2V5).
T1 sequence (whole entry): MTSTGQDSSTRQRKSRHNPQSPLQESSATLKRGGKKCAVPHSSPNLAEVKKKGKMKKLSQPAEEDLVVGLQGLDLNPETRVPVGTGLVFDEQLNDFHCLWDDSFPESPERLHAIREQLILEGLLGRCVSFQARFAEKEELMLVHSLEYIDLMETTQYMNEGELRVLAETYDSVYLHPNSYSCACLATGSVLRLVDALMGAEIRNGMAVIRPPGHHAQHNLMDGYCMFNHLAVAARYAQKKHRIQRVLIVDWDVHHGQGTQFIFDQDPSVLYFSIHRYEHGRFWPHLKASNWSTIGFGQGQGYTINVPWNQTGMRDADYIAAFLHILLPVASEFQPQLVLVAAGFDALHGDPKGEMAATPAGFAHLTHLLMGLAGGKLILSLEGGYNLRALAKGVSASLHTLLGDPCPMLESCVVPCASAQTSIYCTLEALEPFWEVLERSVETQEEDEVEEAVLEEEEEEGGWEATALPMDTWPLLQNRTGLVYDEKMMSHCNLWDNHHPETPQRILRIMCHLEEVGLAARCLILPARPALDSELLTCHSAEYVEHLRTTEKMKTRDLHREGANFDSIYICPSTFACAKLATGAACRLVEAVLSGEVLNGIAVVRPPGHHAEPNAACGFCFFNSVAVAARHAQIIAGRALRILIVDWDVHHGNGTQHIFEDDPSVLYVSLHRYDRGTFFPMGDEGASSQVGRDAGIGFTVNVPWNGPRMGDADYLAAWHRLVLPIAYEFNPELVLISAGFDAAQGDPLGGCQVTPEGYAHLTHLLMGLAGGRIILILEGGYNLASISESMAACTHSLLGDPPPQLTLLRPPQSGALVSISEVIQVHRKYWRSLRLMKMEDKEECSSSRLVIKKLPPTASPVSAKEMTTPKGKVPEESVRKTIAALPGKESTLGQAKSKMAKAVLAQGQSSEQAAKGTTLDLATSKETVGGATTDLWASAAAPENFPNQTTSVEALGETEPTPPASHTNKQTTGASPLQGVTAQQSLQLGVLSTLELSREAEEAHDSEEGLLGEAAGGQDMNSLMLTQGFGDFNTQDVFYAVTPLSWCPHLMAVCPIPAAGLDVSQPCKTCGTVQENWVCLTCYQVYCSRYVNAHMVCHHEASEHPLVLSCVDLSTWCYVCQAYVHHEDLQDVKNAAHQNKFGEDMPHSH
The experiment can be described thus: Inhibition of HDAC6 in mouse HT-22 cells assessed as increase in acetylated tubulin level at […] after 24 hrs by Western blotting analysis. Format: cell-based. For orientation: In western blotting, separated proteins are transferred to a membrane and probed.

For experiment [2], the target named is T1, Protein deacetylase HDAC6 (Mus musculus). The experiment can be described thus: Inhibition of HDAC6 in mouse HT-22 cells assessed as increase in acetylated tubulin level at 20 to 500 nM after 24 hrs by Western blotting analysis. It counts as cell-based. Conditions: dose 20-500 nM.
The target is the same in experiment [3]. The experiment can be described thus: Inhibition of HDAC6 in mouse HT-22 cells assessed as increase in acetylated histone H3 level at 20 to 500 nM after 24 hrs by Western blotting analysis. It counts as cell-based. To be noted: dose 20-500 nM.
For experiment [4] the target is unchanged. The experiment can be described thus: Inhibition of HDAC6 in mouse HT-22 cells assessed as increase in acetylated histone H4 level at 20 to 500 nM after 24 hrs by Western blotting analysis. It counts as cell-based. Conditions: dose 20-500 nM.
For experiment [5], the system named is N9. The experiment can be described thus: Immunomodulatory activity in mouse N9 microglial cells assessed as reduction in LPS-induced nitrite accumulation incubated for 24 hrs by Griess reagent based analysis. It counts as functional, cell-based. To be noted: dose 0.1-5 µM.
The test system of experiment [6] is N9. The experiment can be described thus: Immunomodulatory activity in mouse N9 microglial cells assessed as reduction in LPS-induced IL1beta level incubated for 24 hrs by colorimetric assay. Conditions: dose 0.1-5 µM. Format: functional, cell-based.
Experiment [7] has as its system N9. The experiment can be described thus: Immunomodulatory activity in mouse N9 microglial cells assessed as reduction in LPS-induced iNOS expression incubated for 24 hrs by Western blot analysis. Conditions: dose 0.1-5 µM. It counts as functional, cell-based.
The subject of experiment [8] is Mus musculus. The experiment can be described thus: Anti-alzheimer activity against amyloid beta (25 to 35) induced working memory deficit in mouse assessed as increase in spontaneous alternation performance at 0.3 mg/kg, ip administered for 7 days and measured on day 8 by Y-maze test. It counts as functional, organism-based. Conditions: time 8.0 day.
Experiment [9] relates to Mus musculus. The experiment can be described thus: Anti-alzheimer activity against amyloid beta (25 to 35) induced working memory deficit in mouse assessed as increase in spontaneous alternation performance at 0.3 to 1 mg/kg, ip administered for 7 days and measured on day 8 by Y-maze test. To be noted: dose 0.3-1 mg/kg, time 8.0 day. Format: functional, organism-based.

Experiment [10] deals with Mus musculus. The experiment can be described thus: Anti-alzheimer activity against amyloid beta (25 to 35) induced working memory deficit mouse assessed as step-through latency time to enter dark compartment at 0.1 to 0.3 mg/kg, ip administered for 7 days and measured on day 9 days by passive avoidance test. To be noted: dose 0.1-0.3 mg/kg, time 9.0 day. Format: functional, organism-based.

Experiment [11] has as its system Mus musculus. The experiment can be described thus: Anti-alzheimer activity against amyloid beta (25 to 35) induced working memory deficit mouse assessed as step-through latency time to enter dark compartment at 1 mg/kg, ip administered for 7 days and measured on day 9 days by passive avoidance test. It counts as functional, organism-based. To be noted: time 9.0 day.

Activity calls are given as the source filed them. The calls are words filed in the database; no cut-off is given here.

For the molecule `COc1ccc2c(c1)c(CCNC(C)=O)cn2Cc1ccc(C(=O)NO)cc1`, the inhibition entry in experiment [1] is “Active”.
With `COc1ccc2[nH]cc(CCN(Cc3ccc(C(=O)NO)cc3)C(=O)/C=C/c3ccc(O)c(OC)c3)c2c1`, the inhibition entry in experiment [2] is “Active”. Further, the inhibition result in [3] and in experiment [4] was “inactive” throughout. The Activity entry in [5], in [6] and in experiment [7] was “Dose-Dependent Effect” each time. Also, the outcome in experiment [8], in experiment [9] and in experiment [10] was Active. Also, in [11], the result was inactive.
